Earlier results in patent publication US20200300859A1, “MODULATING BIOMARKERS TO INCREASE TUMOR IMMUNITY AND IMPROVE THE EFFICACY OF CANCER IMMUNOTHERAPY” (Dana-Farber Cancer Institute, Inc., priority 2017, published 2020).

Tested on: osmotic nephrosis
Settings: in vivo

For `CN1C(=O)C(Cc2c[nH]c3ccccc23)NC1=S` (stereo not shown) [Necrostatin-1, 5-(1H-Indol-3-ylmethyl)-3-methyl-2-thioxo-4-imidazolidinone], the osmotic nephrosis is given as “prevents”.
